Data on three molecules can be found in patent US20230173084A1, “PEPTIDE-BASED SYNTHETIC CHLORIDE ION TRANSPORTERS” (Tavanta Therapeutics Hungary Incorporated, priority 2019, published 2023).

Structures are written as SMILES.

One series concerns pancreatic organoids. The experiment in a line: intracellular Cl- level (MQAE) in 3D pancreatic organoids. The following applies: 100 µM. The series is classed as cell-based. As to the method: To assess the biological activity of CPPs changes of intracellular Cl^— level was measured by loading HEK-293 cells with 5 µM N-(Ethoxycarbonylmethyl)-6-Methoxyquinolinium Bromide (MQAE; ThermoFischer; Catalog number: E3101) for 30 min in the presence of 0.05% Pluronic F-127. Cells were bathed with Cl^— free external solution and treated with different concentrations of CPPs at 37° C. at the perfusion rate of 2-3 ml/min. Region of interests (ROIs) were determined by the xcellence softver (Olympus) and changes of Cl^— were determined by exciting the cells with an MT20 light source equipped with a 340/11 nm excitation filter. Excitation and emission wavelengths were separated by a 400 nm beam splitter and the emitted light was captured by a Hamamatsu ORCA- ER CCD camera. One measurement per second was obtained. During further analysis the fluorescence signals were normalized to the initial fluorescence intensity (F1/F0) and expressed as normalized MQAE fluorescence (FIG. 2). […] N: 4-5 independent experiments/each tested condition.
To test the Cl^— transporting capability of CPPs in primary 3D cells, organoids were loaded with MQAE as above described and bathed in standard HEPES buffered solution (FIG. 4.). […] N: 4-5 independent experiments/each tested condition.

The nature of series [1]: apoptosis/necrosis detection kit, effect on cell fate. It is filed as cell-based. The following applies: human; HEK-293 cells, 100 µM, 30 min; read-out: viable cells after the incubation. As to the method:
(§1) To investigate the effect of compounds according to the invention on cell fate, an apoptosis/necrosis detection kit was used according to the manufacturer’s instruction (Abcam Cat. No.: ab176750). Briefly, HEK-293 cells were incubated with various concentrations of CPPs for 30 min at 37° C. Cells were then washed 3 times and were incubated in 200 µL of Assay Buffer and loaded with CytoCalcein 450, Nuclear Green and Apopxin Deep Red at room temperature for 30-60 min. Following this, cells were washed and imaged. Images were captured using a Zeiss LSM880 confocal microscope with different channels and wavelengths according to each dye: CytoCalcein 450 (Ex/Em = 405/450 nm), Nuclear Green (Ex/Em = 490/520 nm) and Apopxin Deep Red (Ex/Em = 630/660 nm). For each condition, five images were captured and the total number of cells were counted by two independent investigators. Results are visualized in % of total cell number (live/apoptotic/necrotic) (FIG. 1). […] However, the majority of cells survived the treatment.

Another series has as its system HEK-293 cells. The description is as above. The series is classed as cell-based. The following applies: for apoptotic cell death: 30 min; for necrotic cell death: 30 min incubation at 37° C.; for toxicity: even in 100 µM. As to the method: as §1
The next series concerns CFTR knockout mice. Put plainly: severity of lung fibrosis in Cftr knockout mice, nebulized treatment. The series is classed as in vivo, mouse. An excerpt: To assess the effect of in vivo administrated Formula (II) on lung histology parameters, this Example use Cftr^tm1UncTg(FABPCFTR)1Jaw/J mice (Jackson Laboratory, Stock No: 002364). FABP-hCFTR-CFTR bitransgenic mice harbor the FABP-hCFTR transgene [rat fatty acid binding protein 2, intestinal promoter directing expression of a human cystic fibrosis transmembrane conductance regulator (ATP-binding cassette sub-family C, member 7) gene] and a targeted knock-out mutation of the cystic fibrosis transmembrane conductance regulator homolog gene (Cftr). The mice used in this study were 8-12 weeks old and weighted 20-25 grams in the case of wild type (WT) animals and 15-17 grams in the case of CFTR knockout animals, the gender ratio was 1:1 for all groups. Experiments were carried out with adherence to the NIH guidelines and the EU directive 2010/63/EU for the protection of animals used for scientific purposes. The study was authorized by the National Scientific Ethical Committee on Animal Experimentation under license number XXI./1540/2020. Formula (II) was dissolved in physiological saline in a concentration of 10 µM. Treated mice received 400 µL Formula (II) dissolved in physiological saline solution in 5 minutes in a nebulizer in continuous oxygen flow (2L/min). Control animals received physiological saline as vehicle. The mice were grouped into 4 treatment groups as follows: wild type control (Group 1), CFTR knockout control (Group 2), wild type treated (Group 3), CFTR knockout treated (Group 4). Treatment was performed daily for 4 weeks. At the end of the experiments, mice received terminal anesthesia and the lungs were removed. Lungs were fixed for histology and trichrome staining was performed to assess lung parenchyma density and lung fibrosis. Sections were digitalized and fibrosis was scored as follows. 1388×1038 resolution pictures were taken with 10x and 40x magnification objectives with Zeiss ICc3 camera. […] Positive pixels were counted as fibrosis, negative pixels were counted as tissue. […]

Take `O=C(O)c1ccc(/C=C2\SC(=S)N(c3cccc(C(F)(F)F)c3)C2=O)cc1` [CFTRinh172]: the “effect on the fluorescent increase after removal of extracellular Cl- (CFTR-mediated Cl- efflux)” value with pancreatic organoids was “almost completely abolished the fluorescent increase”.
As to `CC[C@H](C)[C@H](NC(=O)[C@H](CCCCN)NC(=O)[C@@H](NC(=O)[C@H](CCC(N)=O)NC(=O)[C@H](CCCNC(=N)N)NC(=O)CCCCCNC(=S)Nc1cc(C(F)(F)F)cc(C(F)(F)F)c1)[C@@H](C)CC)C(=O)N[C@@H](Cc1c[nH]c2ccccc12)C(=O)N[C@@H](Cc1ccccc1)C(=O)N[C@@H](CCC(N)=O)C(=O)N[C@@H](CC(N)=O)C(=O)N[C@@H](CCCNC(=N)N)C(=O)N[C@@H](CCCNC(=N)N)C(=O)N[C@@H](CCSC)C(=O)N[C@@H](CCCCN)C(=O)N[C@@H](Cc1c[nH]c2ccccc12)C(=O)N[C@@H](CCCCN)C(=O)N[C@@H](CCCCN)C(N)=O` [Formula (II)], the viability at 0.5 h, 100 µM in series [1] is 97.3%. Besides, the apoptotic cell death entry in the series on HEK-293 cells (10 µM) is recorded as “limited rate of apoptotic cell death”. Further, the apoptotic cell death result in the series on HEK-293 cells (100 µM) was “limited rate of apoptotic cell death”. In the series with HEK-293 cells, the necrotic cell death result is given as “no necrotic cell death was observed” and the toxicity result was “negligible toxicity”. For the same molecule, the body weight entry in the series on CFTR knockout mice (all groups, 4 weeks of daily treatment) is “maintained their initial weights”. In addition, the “adverse events during the treatment” value with CFTR knockout mice (mice, nebulized daily for 4 weeks) is “no adverse events were observed”. Also, in the series with CFTR knockout mice (treated animals, nebulized daily for 4 weeks), the “clinical signs of toxicity” value is reported as “No clinical signs of toxicity were observed”.
In the case of `CC[C@H](C)[C@H](NC(=O)[C@H](CCCCN)NC(=O)[C@@H](NC(=O)[C@H](CCC(N)=O)NC(=O)[C@H](CCCNC(=N)N)NC(=O)c1ccc(N=C=S)cc1)[C@@H](C)CC)C(=O)N[C@@H](Cc1c[nH]c2ccccc12)C(=O)N[C@@H](Cc1ccccc1)C(=O)N[C@@H](CCC(N)=O)C(=O)N[C@@H](CC(N)=O)C(=O)N[C@@H](CCCNC(=N)N)C(=O)N[C@@H](CCCNC(=N)N)C(=O)N[C@@H](CCSC)C(=O)N[C@@H](CCCCN)C(=O)N[C@@H](Cc1c[nH]c2ccccc12)C(=O)N[C@@H](CCCCN)C(=O)N[C@@H](CCCCN)C(N)=O` [Formula (III)], the viability at 0.5 h, 100 µM in series [1] was found to be 97.3%. The apoptotic cell death result with HEK-293 cells (100 µM) is given as “limited rate of apoptotic cell death”. Also, in the series with HEK-293 cells, the necrotic cell death result is listed as “no necrotic cell death was observed” and the toxicity result is “negligible toxicity”.
